Here are results for 17 compounds from US11622970B2, “BCL-2 inhibitors and their use as pharmaceuticals” (PRELUDE THERAPEUTICS INCORPORATED, priority 2020, dated 2023).

Molecules are shown by their SMILES.

BCL-2 recombinant protein, sequence (P10415 whole entry): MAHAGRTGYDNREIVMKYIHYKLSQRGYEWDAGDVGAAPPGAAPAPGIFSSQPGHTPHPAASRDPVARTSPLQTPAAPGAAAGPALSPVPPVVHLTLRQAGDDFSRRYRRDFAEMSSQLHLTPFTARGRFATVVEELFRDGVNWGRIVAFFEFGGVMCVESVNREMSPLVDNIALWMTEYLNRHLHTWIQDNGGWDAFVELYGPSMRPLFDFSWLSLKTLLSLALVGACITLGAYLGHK

The target of one assay is BCL-2 recombinant protein (Homo sapiens, UniProt P10415). Briefly: Cell free Bcl-2:Bak affinity assay (Bcl-2 Bak), HTRF competition of FAM-Bak peptide. It counts as binding. Conditions: 1 μM compound, 4 nM BCL-2 recombinant protein, 100 nM FAM-Bak, read-out: potency (% inhibition at 1 μM). The gist of the method:
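Compounds in 10-point 3-fold dilution preincubated 10 min at RT with 4 nM GST-BCL-2 (20 mM K phosphate pH 7.5, 50 mM NaCl, 1 mM EDTA, 0.005% Triton X-100), then 100 nM FAM-Bak 10 min, anti-GST-Tb added, 60 min RT dark. HTRF read; % inhibition vs DMSO and positive control, IC50 from curve fit.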
For orientation: In TR-FRET formats the signal depends on donor and acceptor labels being close together.
For orientation: inhibition means the share of the control response that was lost under treatment. On to `CC1(C)CCC(CN2CCN(c3ccc(S(=O)(=O)NC(=O)c4ccc(COc5cc(Cl)ccc5Cl)cc4)cc3)CC2)=C(c2ccc(Cl)cc2)C1` [Example 35, N-([4-[4-[[2-(4-chlorophenyl)-4,4-dimethylcyclohexen-1-yl]methyl]piperazin-1-yl]phenyl]sulfonyl)-4-((2,5-dichlorophenoxy)methyl)benzamide], for which the inhibition at 1 µM was above 90%.
Same read-out and setting: the result for `CC1(C)CCC(CN2CCN(c3ccc(S(=O)(=O)NC(=O)c4ccc(Br)cn4)cc3)CC2)=C(c2ccc(Cl)cc2)C1` [Example 13, 5-bromo-N-([4-[4-[[2-(4-chlorophenyl)-4,4-dimethylcyclohexen-1-yl]methyl]piperazin-1-yl]phenyl]sulfonyl)pyridine-2-carboxamide] reads 50 to 90%.
On the same count and under the same terms, the result for `CC1(C)CCC(CN2CCN(c3ccc(S(=O)(=O)NC(=O)CCc4cccnc4)cc3)CC2)=C(c2ccc(Cl)cc2)C1` [Example 31, N-([4-[4-[[2-(4-chlorophenyl)-4,4-dimethylcyclohexen-1-yl]methyl]piperazin-1-yl]phenyl]sulfonyl)-3-(pyridin-3-yl)propanamide] reads below 50%; that for `CC1(C)CCC(CN2CCN(c3ccc(S(=O)(=O)NC(=O)c4ccc([N+](=O)[O-])c(OCc5ccccc5)n4)cc3)CC2)=C(c2ccc(Cl)cc2)C1` [Example 51, 6-(benzyloxy)-N-[4-[4-[[2-(4-chlorophenyl)-4,4-dimethylcyclohexen-1-yl]methyl]piperazin-1-yl]phenyl]sulfonyl-5-nitropyridine-2-carboxamide], 50 to 90%.
In the case of `COc1ccccc1C(=O)NS(=O)(=O)c1ccc(N2CCN(CC3=C(c4ccc(Cl)cc4)CC(C)(C)CC3)CC2)cc1` [Example 11, N-([4-[4-[[2-(4-chlorophenyl)-4,4-dimethylcyclohexen-1-yl]methyl]piperazin-yl]phenyl]sulfonyl)-2-methoxybenzamide], the inhibition at 1 µM lay within 50 to 90%.
The same measure, in the same setting: the result for `CC1(C)CCC(CN2CCN(c3ccc(S(=O)(=O)NC(=O)c4ccc(F)c(OCc5ccccc5)c4)cc3)CC2)=C(c2ccc(Cl)cc2)C1` [Example 53, 3-(benzyloxy)-N-[4-[4-[[2-(4-chlorophenyl)-4,4-dimethylcyclohexen-1-yl]methyl]piperazin-1-yl]phenyl]sulfonyl-4-fluorobenzamide] reads 50 to 90%.
The same measure, in the same setting: next, `Cc1nc(C(=O)NS(=O)(=O)c2ccc(N3CCN(CC4=C(c5ccc(Cl)cc5)CC(C)(C)CC4)CC3)cc2)ccc1F` [Example 16, N-([4-[4-[[2-(4-chlorophenyl)-4,4-dimethylcyclohexen-1-yl]methyl]piperazin-1-yl]phenyl]sulfonyl)-5-fluoro-6-methyl pyridine-2-carboxamide]: 50 to 90%; `CC1(C)CCC(CN2CCN(c3ccc(S(=O)(=O)NC(=O)C45CC(C4)C5)cc3)CC2)=C(c2ccc(Cl)cc2)C1` [Example 7, N-([4-[4-[[2-(4-chlorophenyl)-4,4-dimethylcyclohexen-1-yl]methyl]piperazin-1-yl]phenyl]sulfonyl)bicyclo[1.1.1]pentane-1-carboxamide]: 50 to 90%; `COc1cc(-c2nc(C(=O)NS(=O)(=O)c3ccc(N4CCN(CC5=C(c6ccc(Cl)cc6)CC(C)(C)CC5)CC4)cc3)ccc2F)ccn1` [Example 55, N-[4-[4-[[2-(4-Chlorophenyl)-4,4-dimethylcyclohexen-1-yl]methyl]piperazin-1-yl]phenyl]sulfonyl-5-fluoro-6-(2-methoxypyridin-4-yl)pyridine-2-carboxamide]: 50 to 90%.
As for `CC1(C)CCC(CN2CCN(c3ccc(S(=O)(=O)NC(=O)C4CC=CCC4)cc3)CC2)=C(c2ccc(Cl)cc2)C1` (centres unmarked) [Example 28, N-([4-[4-[[2-(4-chlorophenyl)-4,4-dimethylcyclohexen-1-yl]methyl]piperazin-1-yl]phenyl]sulfonyl)cyclohex-3-ene-1-carboxamide], the inhibition at 1 µM is below 50%.
Take `CC1(C)CCC(CN2CCN(c3ccc(S(=O)(=O)NC(=O)c4ccc(F)c(-c5cn[nH]c5)n4)cc3)CC2)=C(c2ccc(Cl)cc2)C1` [Example 59, N-[4-[4-[[2-(4-Chlorophenyl)-4,4-dimethylcyclohexen-1-yl]methyl]piperazin-1-yl]phenyl]sulfonyl-5-fluoro-6-(1H-pyrazol-4-yl)pyridine-2-carboxamide]: the inhibition at 1 µM was 50 to 90%.

Still in this assay, the particulars now being: 10-concentration IC50 mode, 4 nM BCL-2 recombinant protein, 100 nM FAM-Bak, read-out: potency (IC50).
Usually IC50 stands for the concentration that inhibits the measured activity by half. In the case of `Cc1c(Cl)c(C(=O)NS(=O)(=O)c2ccc(N3CCN(CC4=C(c5ccc(Cl)cc5)CC(C)(C)CC4)CC3)cc2Oc2cnc3[nH]ccc3c2)cc([N+](=O)[O-])c1OCC1CCOC1` (centres unmarked) [Example 106, 2-chloro-N-[4-[4-[[2-(4-chlorophenyl)-4,4-dimethylcyclohexen-1-yl]methyl]piperazin-1-yl]-2-(1H-pyrrolo[2,3-b]pyridin-5-yloxy)phenyl]sulfonyl-3-methyl-5-nitro-4-(oxolan-3-ylmethoxy)benzamide], the IC50 is below 10 nM.
Take `Cc1c(Cl)c(C(=O)NS(=O)(=O)c2ccc(N3CCN(CC4=C(c5ccc(Cl)cc5)CC(C)(C)CC4)CC3)cc2Oc2cnc3[nH]ccc3c2)cc([N+](=O)[O-])c1OCC1CCCO1` (centres unmarked) [Example 107, 2-chloro-N-[4-[4-[[2-(4-chlorophenyl)-4,4-dimethylcyclohexen-1-yl]methyl]piperazin-1-yl]-2-(1H-pyrrolo[2,3-b]pyridin-5-yloxy)phenyl]sulfonyl-3-methyl-5-nitro-4-(oxolan-2-ylmethoxy)benzamide]: the IC50 is below 10 nM.
On the same count and under the same terms, next, `CC1(C)CCC(CN2CCN(c3ccc(S(=O)(=O)NC(=O)c4ccc(CN5CCOCC5)c([N+](=O)[O-])c4)c(Oc4cnc5[nH]ccc5c4)c3)CC2)=C(c2ccc(Cl)cc2)C1` [Example 90, N-[4-[4-[[2-(4-chlorophenyl)-4,4-dimethylcyclohexen-1-yl]methyl]piperazin-1-yl]-2-(1H-pyrrolo[2,3-b]pyridin-5-yloxy)phenyl]sulfonyl-4-(morpholin-4-ylmethyl)-3-nitrobenzamide]: 100 to 1000 nM.
The same measure, in the same setting: next, `Cc1c(Cl)c(C(=O)NS(=O)(=O)c2ccc(N3CCN(CC4=C(c5ccc(Cl)cc5)CC(C)(C)CC4)CC3)cc2Oc2cnc3[nH]ccc3c2)cc([N+](=O)[O-])c1OCC1COC1` [Example 103, 2-chloro-N-[4-[4-[[2-(4-chlorophenyl)-4,4-dimethylcyclohexen-1-yl]methyl]piperazin-1-yl]-2-(1H-pyrrolo[2,3-b]pyridin-5-yloxy)phenyl]sulfonyl-3-methyl-5-nitro-4-(oxetan-3-ylmethoxy)benzamide]: 10 to 100 nM; `COc1c([N+](=O)[O-])cc(C(=O)NS(=O)(=O)c2ccc(N3CCN(CC4=C(c5ccc(Cl)cc5)CC(C)(C)CC4)CC3)cc2Oc2cnc3[nH]ccc3c2)c(Cl)c1C` [Example 101, 2-chloro-N-[4-[4-[[2-(4-chlorophenyl)-4,4-dimethylcyclohexen-1-yl]methyl]piperazin-1-yl]-2-(1H-pyrrolo[2,3-b]pyridin-5-yloxy)phenyl]sulfonyl-4-methoxy-3-methyl-5-nitrobenzamide]: 10 to 100 nM; `CC1(C)CCC(CN2CCN(c3ccc(S(=O)(=O)NC(=O)c4ccc(COc5ccc(Cl)cc5)c([N+](=O)[O-])c4)cc3)CC2)=C(c2ccc(Cl)cc2)C1` [Example 39, N-([4-[4-[[2-(4-chlorophenyl)-4,4-dimethylcyclohexen-1-yl]methyl]piperazin-1-yl]phenyl]sulfonyl)-4-((4-chlorophenoxy)methyl)-3-nitrobenzamide]: 10 to 100 nM.
